In brackets after ≈: the same amount, converted by molar mass.
What was measured:
[1] = Relative concentrations of Rapa metabolites in pooled whole blood patient samples (LC/MS); assay type: in vivo; settings: Rapa = 1
Source text: No individual metabolite is found at a concentration greater than 20% of the Rapa parent level.

lymphocytes = test: In vitro mixed lymphocyte reaction (MLR) assay, two-way lymphocyte proliferation; assay type: cell-based; settings: Lymphocyte, 3H-thymidine incorporation
Source text: The MLR assay is useful for identifying rapamycin metabolites with biological (immunosupressive) activity and to quantify this activity relative to the immunosuppressive activity of the parent rapamycin molecule.
An example of a two-way lymphocyte proliferation assay procedure useful for this purpose is as follows:
1. Collect blood from two individuals (20 mls each) and isolate lymphocytes using Ficoll-Paque™ (polysucrose and sodium diatrizoate) (Pharmacia Biotech).
2. Count lymphocytes at 1:10 dilution in 2% acetic acid (v/v).
3. Prepare 10 mls of each lymphocyte populations (A+B) at 1×10^6 cells/ml in DMEM/20% FCS (v/v).
4. Set up a 96 well sterile tissue culture plate, flat bottom (Sarstedt, cat # 83.1835). To each well add:
5. Aliquot 100 μl per well lymphocyte population A
6. Aliquot 100 μl per well lymphocyte population B
7. Aliquot 20 μl per well of drug (rapamycin and rapamycin metabolites M1-5) serially diluted 0 to 1000 μg/L in triplicate in DMEM with no supplements.
8. […]
10. […] Wash cells 3× with 1.0-ml sterile distilled water.
Note: All procedures are done using sterile techniques in a biological flow hood.
11. Place filters in Scintilation vials and add 1.5 mls of ScintiSafe Plus™ 50% scintillation fluid (Fisher, cat #SX-25-5).
12. Measure the amount of radioactivity incorporated in the lymphocytes using a beta counter (Micromedic System Inc., TAURUS™ Automatic Liquid Scintillation Counter) for 1.0 minute.
13. Calculate averages and standard deviations for each drug and express results as: [formula]

[2] = [14C]-rapamycin, healthy male volunteers; cited from earlier work

Relative Concentration in whole blood [1]: 1
Structure (SMILES): CO[C@H]1C[C@@H]2CC[C@@H](C)[C@@](O)(O2)C(=O)C(=O)N2CCCC[C@H]2C(=O)O[C@H]([C@H](C)C[C@@H]2CC[C@@H](O)[C@H](OC)C2)CC(=O)[C@H](C)/C=C(\C)[C@@H](O)[C@@H](OC)C(=O)[C@H](C)C[C@H](C)/C=C/C=C/C=C/1C [Rapa, Rapamycin]
IC50 (lymphocytes): 0.48 ng/mL (≈ 0.525 nM)
share of the total radioactivity in blood [2]: approximately 35%

Reference: US6709873B1, “Method for production of antibodies to specific sites of rapamycin” (Isodiagnostika Inc., priority 1997, dated 2004)
